Measurements published in US10501516B2, “Peptide compound” (TAKEDA PHARMACEUTICAL COMPANY LIMITED, priority 2016, dated 2019).
Square brackets hold non-standard residues; d marks the D form. Side chains are listed from the residue outwards. Peptide text beside a SMILES is read from it. * marks the point of attachment. Phe(2-F) = N[C@@H](Cc1ccccc1F)C(=O)O; NMeY = CN[C@@H](Cc1ccc(O)cc1)C(=O)O; Palmitoyl = CCCCCCCCCCCCCCCC(=O)*; αMeF = C[C@](N)(Cc1ccccc1)C(=O)O; Iva = CC[C@](C)(N)C(=O)O; Aib = CC(C)(N)C(=O)O

Tested on: male C57BL/6J mouse
Test: Evaluation of feeding suppressive action in mice
Format: in vivo
Settings: 30 nmol/kg s.c. once a day for 3 days; 3-days cumulative food consumption vs solvent control
Experimental: The feeding suppressive activity of a test compound was examined by the method described below.
The test compound was dissolved at a concentration of 30 or 100 nmol/2 mL in a solvent (10% DMSO-containing physiological saline). The test compound solution was subcutaneously administered at a dose of 2 mL/kg to the back of each male C57BL/6J mouse at 8-9 weeks of age (20-26° C., allowed to take food and water ad libitum; raised in the 12-hour bright-12-hour dark cycle). The administration was performed once a day for 3 days. After the administration, the mouse was individually raised in a rearing cage, and given previously weighed food; food consumption for 3 days after the start of administration was measured. The food consumption was calculated by subtracting the amount of remaining food from the weight of the food given on the day of the start of administration. When the food consumption of a control group receiving administration of the solvent alone was regarded as a suppression rate of 0%, the feeding suppressive activity of each test compound was evaluated on the basis of 3-days cumulative food consumption after the start of administration. The food intake suppression rate (%) of the test compound was defined as (Food consumption of the control group−Food consumption of the test compound-administered group)/Food consumption of the control group×100.

First: CCCCCCCCCCCCCCCC(=O)NCC(=O)NCC(=O)NCC(=O)NCC(=O)NCCCC[C@H](NC(=O)[C@H](CC(=O)O)NC(=O)[C@H](CO)NC(=O)[C@@H](NC(=O)[C@](C)(Cc1ccccc1)NC(=O)[C@@H](NC(=O)CNC(=O)[C@H](CCC(=O)O)NC(=O)C(C)(C)NC(=O)[C@@H](N)Cc1ccc(O)cc1)[C@@H](C)O)[C@@H](C)O)C(=O)NC(C)(C)C(=O)N[C@H](C(=O)NC(C)(C)C(=O)N[C@@H](CC(C)C)C(=O)N[C@@H](CC(=O)O)C(=O)N[C@@H](CCCCN)C(=O)N[C@@H](CCC(N)=O)C(=O)N[C@@H](C)C(=O)N[C@@H](CCC(N)=O)C(=O)N[C@@](C)(CC)C(=O)N[C@@H](CCC(=O)O)C(=O)N[C@@H](Cc1ccccc1)C(=O)N[C@H](C(=O)N[C@@H](CCCNC(=N)N)C(=O)N[C@@H](Cc1c[nH]cn1)C(=O)N[C@@H](CC(C)C)C(=O)N[C@@H](CC(C)C)C(=O)N[C@@H](CC(N)=O)C(=O)N[C@@H](CCCCN)C(=O)NC(C)(C)C(=O)N[C@H](C(=O)N[C@@H](CCCNC(=N)N)C(=O)N[C@@H](CCC(N)=O)C(=O)N[C@@H](CCCNC(=N)N)C(=O)N[C@@H](Cc1ccccc1F)C(N)=O)[C@@H](C)O)C(C)C)[C@@H](C)CC [Example 1] (H-Y[Aib]EGT[αMeF]TSDK([Gly-Gly-Gly-Gly-Palmitoyl])[Aib]I[Aib]LDKQAQ[Iva]EFVRHLLNK[Aib]TRQR[Phe(2-F)]-NH2)
Second: CCCCCCCCCCCCCCCC(=O)NCC(=O)NCC(=O)NCC(=O)NCC(=O)NCCCC[C@H](NC(=O)[C@H](CC(=O)O)NC(=O)[C@H](CO)NC(=O)[C@@H](NC(=O)[C@](C)(Cc1ccccc1)NC(=O)[C@@H](NC(=O)CNC(=O)[C@H](CCC(=O)O)NC(=O)C(C)(C)NC(=O)[C@H](Cc1ccc(O)cc1)NC)[C@@H](C)O)[C@@H](C)O)C(=O)NC(C)(C)C(=O)N[C@H](C(=O)NC(C)(C)C(=O)N[C@@H](CC(C)C)C(=O)N[C@@H](CC(=O)O)C(=O)N[C@@H](CCCCN)C(=O)N[C@@H](CCC(N)=O)C(=O)N[C@@H](C)C(=O)N[C@@H](CCC(N)=O)C(=O)N[C@@](C)(CC)C(=O)N[C@@H](CCC(=O)O)C(=O)N[C@@H](Cc1ccccc1)C(=O)N[C@H](C(=O)N[C@@H](CCCNC(=N)N)C(=O)N[C@@H](Cc1c[nH]cn1)C(=O)N[C@@H](CC(C)C)C(=O)N[C@@H](CC(C)C)C(=O)N[C@@H](CC(N)=O)C(=O)N[C@@H](CCCCN)C(=O)NC(C)(C)C(=O)N[C@H](C(=O)N[C@@H](CCCNC(=N)N)C(=O)N[C@@H](CCC(N)=O)C(=O)N[C@@H](CCCNC(=N)N)C(=O)N[C@@H](Cc1ccc(O)cc1)C(N)=O)[C@@H](C)O)C(C)C)[C@@H](C)CC [Example 29] (H-[NMeY][Aib]EGT[αMeF]TSDK([Gly-Gly-Gly-Gly-Palmitoyl])[Aib]I[Aib]LDKQAQ[Iva]EFVRHLLNK[Aib]TRQRY-NH2)
The “Rate of feeding suppression (%)” value of the first is higher: −37.1% for the first, −43.7% for the second.

First: CCCCCCCCCCCCCCCC(=O)NCC(=O)NCC(=O)NCC(=O)NCC(=O)NCCCC[C@H](NC(=O)[C@H](CC(=O)O)NC(=O)[C@H](CO)NC(=O)[C@@H](NC(=O)[C@](C)(Cc1ccccc1)NC(=O)[C@@H](NC(=O)CNC(=O)[C@H](CCC(=O)O)NC(=O)C(C)(C)NC(=O)[C@@H](N)Cc1ccc(O)cc1)[C@@H](C)O)[C@@H](C)O)C(=O)N[C@@H](C)C(=O)N[C@H](C(=O)NC(C)(C)C(=O)N[C@@H](CC(C)C)C(=O)N[C@@H](CC(=O)O)C(=O)N[C@@H](CCCCN)C(=O)N[C@@H](CCC(N)=O)C(=O)N[C@@H](CCCNC(=N)N)C(=O)N[C@@H](CCC(N)=O)C(=O)N[C@@](C)(CC)C(=O)N[C@@H](CCC(=O)O)C(=O)N[C@@H](Cc1ccccc1)C(=O)N[C@H](C(=O)N[C@@H](CCCNC(=N)N)C(=O)N[C@@H](Cc1c[nH]cn1)C(=O)N[C@@H](CC(C)C)C(=O)N[C@@H](CC(C)C)C(=O)N[C@@H](CC(N)=O)C(=O)N[C@@H](CCCCN)C(=O)NC(C)(C)C(=O)N[C@H](C(=O)N[C@@H](CCCNC(=N)N)C(=O)N[C@@H](CCC(N)=O)C(=O)N[C@@H](CCCNC(=N)N)C(=O)N[C@@H](Cc1ccc(O)cc1)C(N)=O)[C@@H](C)O)C(C)C)[C@@H](C)CC [Example 11] (H-Y[Aib]EGT[αMeF]TSDK([Gly-Gly-Gly-Gly-Palmitoyl])AI[Aib]LDKQRQ[Iva]EFVRHLLNK[Aib]TRQRY-NH2)
Second: CCCCCCCCCCCCCCCC(=O)NCC(=O)NCC(=O)NCC(=O)NCC(=O)NCCCC[C@H](NC(=O)[C@H](CC(=O)O)NC(=O)[C@H](CO)NC(=O)[C@@H](NC(=O)[C@](C)(Cc1ccccc1)NC(=O)[C@@H](NC(=O)CNC(=O)[C@H](CCC(=O)O)NC(=O)C(C)(C)NC(=O)[C@@H](N)Cc1ccc(O)cc1)[C@@H](C)O)[C@@H](C)O)C(=O)N[C@@H](CO)C(=O)N[C@H](C(=O)NC(C)(C)C(=O)N[C@@H](CC(C)C)C(=O)N[C@@H](CC(=O)O)C(=O)N[C@@H](CCCCN)C(=O)N[C@@H](CCC(N)=O)C(=O)N[C@@H](CCCNC(=N)N)C(=O)N[C@@H](CCC(N)=O)C(=O)N[C@@](C)(CC)C(=O)N[C@@H](CCC(=O)O)C(=O)N[C@@H](Cc1ccccc1)C(=O)N[C@H](C(=O)N[C@@H](CCCNC(=N)N)C(=O)N[C@@H](Cc1c[nH]cn1)C(=O)N[C@@H](CC(C)C)C(=O)N[C@@H](CC(C)C)C(=O)N[C@@H](CC(N)=O)C(=O)N[C@@H](CCCCN)C(=O)NC(C)(C)C(=O)N[C@H](C(=O)N[C@@H](CCCNC(=N)N)C(=O)N[C@@H](CCC(N)=O)C(=O)N[C@@H](CCCNC(=N)N)C(=O)N[C@@H](Cc1ccc(O)cc1)C(N)=O)[C@@H](C)O)C(C)C)[C@@H](C)CC [Example 15] (H-Y[Aib]EGT[αMeF]TSDK([Gly-Gly-Gly-Gly-Palmitoyl])SI[Aib]LDKQRQ[Iva]EFVRHLLNK[Aib]TRQRY-NH2)
The “Rate of feeding suppression (%)” value of the first is lower: −48.1% for the first, −41.2% for the second.

Compared with `CCCCCCCCCCCCCCCC(=O)NCC(=O)NCC(=O)NCC(=O)NCC(=O)NCCCC[C@H](NC(=O)[C@H](CC(=O)O)NC(=O)[C@H](CO)NC(=O)[C@@H](NC(=O)[C@](C)(Cc1ccccc1)NC(=O)[C@@H](NC(=O)CNC(=O)[C@H](CCC(=O)O)NC(=O)C(C)(C)NC(=O)[C@@H](N)Cc1ccc(O)cc1)[C@@H](C)O)[C@@H](C)O)C(=O)NC(C)(C)C(=O)N[C@@H](CCCCN)C(=O)NC(C)(C)C(=O)N[C@@H](CC(C)C)C(=O)N[C@@H](CC(=O)O)C(=O)N[C@@H](CCCCN)C(=O)N[C@@H](CCC(N)=O)C(=O)N[C@@H](CCCNC(=N)N)C(=O)N[C@@H](CCC(N)=O)C(=O)N[C@@](C)(CC)C(=O)N[C@@H](CCC(=O)O)C(=O)N[C@@H](Cc1ccccc1)C(=O)N[C@H](C(=O)N[C@@H](CCCNC(=N)N)C(=O)N[C@@H](Cc1c[nH]cn1)C(=O)N[C@@H](CC(C)C)C(=O)N[C@@H](CC(C)C)C(=O)N[C@@H](CC(N)=O)C(=O)N[C@@H](CCCCN)C(=O)NC(C)(C)C(=O)N[C@H](C(=O)N[C@@H](CCCNC(=N)N)C(=O)N[C@@H](CCC(N)=O)C(=O)N[C@@H](CCCNC(=N)N)C(=O)N[C@@H](Cc1ccc(O)cc1)C(N)=O)[C@@H](C)O)C(C)C` [Example 19] (H-Y[Aib]EGT[αMeF]TSDK([Gly-Gly-Gly-Gly-Palmitoyl])[Aib]K[Aib]LDKQRQ[Iva]EFVRHLLNK[Aib]TRQRY-NH2), `CCCCCCCCCCCCCCCC(=O)NCC(=O)NCC(=O)NCC(=O)NCC(=O)NCCCC[C@H](NC(=O)[C@H](CC(=O)O)NC(=O)[C@H](CO)NC(=O)[C@@H](NC(=O)[C@](C)(Cc1ccccc1)NC(=O)[C@@H](NC(=O)CNC(=O)[C@H](CCC(=O)O)NC(=O)C(C)(C)NC(=O)[C@H](Cc1ccc(O)cc1)NC)[C@@H](C)O)[C@@H](C)O)C(=O)NC(C)(C)C(=O)N[C@@H](CCCCN)C(=O)NC(C)(C)C(=O)N[C@@H](CC(C)C)C(=O)N[C@@H](CC(=O)O)C(=O)N[C@@H](CCCCN)C(=O)N[C@@H](CCC(N)=O)C(=O)N[C@@H](CCCNC(=N)N)C(=O)N[C@@H](CCC(N)=O)C(=O)N[C@@](C)(CC)C(=O)N[C@@H](CCC(=O)O)C(=O)N[C@@H](Cc1ccccc1)C(=O)N[C@H](C(=O)N[C@@H](CCCNC(=N)N)C(=O)N[C@@H](Cc1c[nH]cn1)C(=O)N[C@@H](CC(C)C)C(=O)N[C@@H](CC(C)C)C(=O)N[C@@H](CC(N)=O)C(=O)N[C@@H](CCCCN)C(=O)NC(C)(C)C(=O)N[C@H](C(=O)N[C@@H](CCCNC(=N)N)C(=O)N[C@@H](CCC(N)=O)C(=O)N[C@@H](CCCNC(=N)N)C(=O)N[C@@H](Cc1ccc(O)cc1)C(N)=O)[C@@H](C)O)C(C)C` [Example 21] (H-[NMeY][Aib]EGT[αMeF]TSDK([Gly-Gly-Gly-Gly-Palmitoyl])[Aib]K[Aib]LDKQRQ[Iva]EFVRHLLNK[Aib]TRQRY-NH2) is higher in “Rate of feeding suppression (%)” value: −37.0% for the first, −27.9% for the second.

`CCCCCCCCCCCCCCCC(=O)NCC(=O)NCC(=O)NCC(=O)NCC(=O)NCCCC[C@H](NC(=O)[C@H](CC(=O)O)NC(=O)[C@H](CO)NC(=O)[C@@H](NC(=O)[C@](C)(Cc1ccccc1)NC(=O)[C@@H](NC(=O)CNC(=O)[C@H](CCC(=O)O)NC(=O)C(C)(C)NC(=O)[C@H](Cc1ccc(O)cc1)NC)[C@@H](C)O)[C@@H](C)O)C(=O)N[C@@H](CO)C(=O)N[C@@H](CCCCN)C(=O)NC(C)(C)C(=O)N[C@@H](CC(C)C)C(=O)N[C@@H](CC(=O)O)C(=O)N[C@@H](CCCCN)C(=O)N[C@@H](CCC(N)=O)C(=O)N[C@@H](CCCNC(=N)N)C(=O)N[C@@H](CCC(N)=O)C(=O)N[C@@](C)(CC)C(=O)N[C@@H](CCC(=O)O)C(=O)N[C@@H](Cc1ccccc1)C(=O)N[C@H](C(=O)N[C@@H](CCCNC(=N)N)C(=O)N[C@@H](Cc1c[nH]cn1)C(=O)N[C@@H](CC(C)C)C(=O)N[C@@H](CC(C)C)C(=O)N[C@@H](CC(N)=O)C(=O)N[C@@H](CCCCN)C(=O)NC(C)(C)C(=O)N[C@H](C(=O)N[C@@H](CCCNC(=N)N)C(=O)N[C@@H](CCC(N)=O)C(=O)N[C@@H](CCCNC(=N)N)C(=O)N[C@@H](Cc1ccc(O)cc1)C(N)=O)[C@@H](C)O)C(C)C` [Example 25] (H-[NMeY][Aib]EGT[αMeF]TSDK([Gly-Gly-Gly-Gly-Palmitoyl])SK[Aib]LDKQRQ[Iva]EFVRHLLNK[Aib]TRQRY-NH2) was tested, and the “Rate of feeding suppression (%)” value was −41.7%.
